Test results taken from article PMC3525188, “Assessment of Anticholinesterase Activity of Gelidiella acerosa: Implications for Its Therapeutic Potential against Alzheimer's Disease” (Evidence-based Complementary and Alternative Medicine : eCAM, 2012).

How the values were obtained:
[1] = target: T1, Electric eel AChE (Type-VI-S, EC 3.1.1.7) (Electrophorus electricus, UniProt O42275); test: Ellman assay, Lineweaver-Burk plot, EZ-Fit; assay type: biochemical; conditions: control without extract, 0.05 M Tris-HCl pH 8.0, RT; unreliable (printed unit nM implausible beside mM substrate)
T1 construct: commercial native enzyme, Sigma Type VI-S
T1 sequence (O42275 24-633): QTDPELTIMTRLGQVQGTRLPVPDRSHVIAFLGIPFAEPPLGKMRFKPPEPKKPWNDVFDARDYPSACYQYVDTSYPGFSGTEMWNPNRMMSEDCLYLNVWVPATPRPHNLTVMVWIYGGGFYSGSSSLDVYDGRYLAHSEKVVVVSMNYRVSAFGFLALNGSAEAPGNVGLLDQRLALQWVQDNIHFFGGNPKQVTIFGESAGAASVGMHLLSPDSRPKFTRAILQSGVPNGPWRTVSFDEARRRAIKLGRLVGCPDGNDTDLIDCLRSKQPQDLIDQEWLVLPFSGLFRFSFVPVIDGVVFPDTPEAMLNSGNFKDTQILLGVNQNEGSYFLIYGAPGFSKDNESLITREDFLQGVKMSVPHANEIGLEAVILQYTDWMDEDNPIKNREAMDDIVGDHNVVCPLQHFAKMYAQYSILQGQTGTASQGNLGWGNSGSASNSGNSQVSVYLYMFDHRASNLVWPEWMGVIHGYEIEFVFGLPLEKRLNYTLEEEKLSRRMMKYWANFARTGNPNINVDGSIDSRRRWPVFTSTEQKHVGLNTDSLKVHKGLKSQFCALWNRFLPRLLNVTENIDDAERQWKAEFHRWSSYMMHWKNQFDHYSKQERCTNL
Description: Ellman assay, Lineweaver-Burk plot, EZ-Fit on Electric eel AChE (Type-VI-S, EC 3.1.1.7)

[2] = target: T2, horse serum BuChE (EC 3.1.1.8) (Equus caballus, UniProt P81908); test: Ellman assay, Lineweaver-Burk plot, EZ-Fit; assay type: biochemical; conditions: control without extract, 0.05 M Tris-HCl pH 8.0, RT; unreliable (printed unit nM implausible beside mM substrate)
T2 construct: gene BCHE; commercial native enzyme from horse serum, Sigma
T2 sequence (P81908 whole entry): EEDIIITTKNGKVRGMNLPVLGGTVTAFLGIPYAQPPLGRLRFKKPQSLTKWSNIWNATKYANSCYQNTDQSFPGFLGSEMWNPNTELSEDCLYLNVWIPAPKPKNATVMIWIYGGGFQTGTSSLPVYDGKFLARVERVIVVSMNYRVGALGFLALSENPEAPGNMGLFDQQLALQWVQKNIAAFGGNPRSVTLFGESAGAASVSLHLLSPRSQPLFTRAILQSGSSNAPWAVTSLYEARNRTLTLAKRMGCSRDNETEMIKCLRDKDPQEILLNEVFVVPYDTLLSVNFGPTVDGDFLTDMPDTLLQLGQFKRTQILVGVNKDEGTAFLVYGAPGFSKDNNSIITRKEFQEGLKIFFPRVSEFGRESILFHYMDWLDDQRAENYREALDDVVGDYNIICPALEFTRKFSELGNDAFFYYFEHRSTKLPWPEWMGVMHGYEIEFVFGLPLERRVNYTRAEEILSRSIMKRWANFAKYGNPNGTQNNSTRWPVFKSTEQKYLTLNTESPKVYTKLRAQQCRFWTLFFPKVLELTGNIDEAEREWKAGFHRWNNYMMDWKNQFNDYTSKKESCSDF
Description: Ellman assay, Lineweaver-Burk plot, EZ-Fit on horse serum BuChE (EC 3.1.1.8)

## CC(=O)SCC[N+](C)(C)C [acetylthiocholine iodide]
[1]
  AChE / Control: 0.8774 ± 0.41 nM

## CCCC(=O)SCC[N+](C)(C)C [butyrylthiocholine iodide]
[2]
  BuChE / Control: 3.12 ± 0.87 nM
